24 compounds from patent US20090062294A1, “HETEROARYL-SUBSTITUTED UREA MODULATORS OF FATTY ACID AMIDE HYDROLASE” (priority 2007, published 2009) can be followed below.

Each structure is given as a SMILES string. Where a name gives a salt, the structure may show the parent alone. Where only a bound is given, the exact number is not on record here.

The target in one experiment is T1, FAAH (Homo sapiens, UniProt O00519).
T1 sequence (O00519 1-579): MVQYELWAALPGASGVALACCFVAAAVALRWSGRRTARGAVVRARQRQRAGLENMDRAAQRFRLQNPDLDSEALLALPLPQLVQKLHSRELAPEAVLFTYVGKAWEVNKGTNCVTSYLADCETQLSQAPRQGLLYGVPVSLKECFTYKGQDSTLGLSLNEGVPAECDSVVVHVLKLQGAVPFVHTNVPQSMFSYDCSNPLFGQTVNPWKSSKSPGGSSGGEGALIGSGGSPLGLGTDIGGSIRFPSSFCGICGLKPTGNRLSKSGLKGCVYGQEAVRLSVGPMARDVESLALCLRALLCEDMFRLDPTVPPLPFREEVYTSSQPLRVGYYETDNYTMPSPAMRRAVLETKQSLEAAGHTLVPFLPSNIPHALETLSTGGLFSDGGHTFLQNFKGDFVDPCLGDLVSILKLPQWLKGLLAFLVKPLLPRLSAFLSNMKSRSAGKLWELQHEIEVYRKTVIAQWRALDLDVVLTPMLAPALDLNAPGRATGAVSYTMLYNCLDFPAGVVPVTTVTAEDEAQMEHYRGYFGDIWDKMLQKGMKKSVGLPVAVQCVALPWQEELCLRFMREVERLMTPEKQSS
Briefly: Assay Method 1: FAAH assay, 3H-anandamide hydrolysis in homogenate of T84 cells or SK-N-MC cells transfected with human FAAH. The experiment is classed as biochemical. The settings on record: average of results, > = solubility limit or highest concentration tested. The method in brief:
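Homogenates of T84 cells or of SK-N-MC cells stably transfected with human FAAH (G418-selected) were prepared in pH 9 Tris/EDTA/glycerol/Triton buffer. They were incubated with compound and 80 nM final ^3H-anandamide for 1 h at rt. Released ^3H-ethanolamine was separated on activated charcoal and counted by scintillation.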

The target of the next experiment is T2, rat FAAH (Rattus norvegicus, UniProt P97612).
T2 sequence (P97612 1-579): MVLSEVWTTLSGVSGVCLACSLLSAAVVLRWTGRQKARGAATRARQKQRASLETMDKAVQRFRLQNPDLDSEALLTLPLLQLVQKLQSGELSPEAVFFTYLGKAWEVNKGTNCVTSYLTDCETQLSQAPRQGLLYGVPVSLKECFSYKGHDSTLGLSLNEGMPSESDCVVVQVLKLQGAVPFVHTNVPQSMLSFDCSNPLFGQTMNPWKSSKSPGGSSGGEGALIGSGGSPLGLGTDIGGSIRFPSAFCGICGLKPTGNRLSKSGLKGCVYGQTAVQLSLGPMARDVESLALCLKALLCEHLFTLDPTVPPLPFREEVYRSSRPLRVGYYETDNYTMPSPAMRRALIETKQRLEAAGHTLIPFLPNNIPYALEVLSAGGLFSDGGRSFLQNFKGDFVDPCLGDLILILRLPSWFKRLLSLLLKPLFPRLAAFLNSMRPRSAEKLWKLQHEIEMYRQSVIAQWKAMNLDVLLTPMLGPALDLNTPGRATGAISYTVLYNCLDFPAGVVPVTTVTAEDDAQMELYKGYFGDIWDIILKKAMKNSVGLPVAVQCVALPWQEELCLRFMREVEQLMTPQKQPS
Briefly: Assay Method 2: FAAH assay, 3H-anandamide hydrolysis in homogenate of SK-N-MC cells transfected with rat FAAH. Format: biochemical. The settings on record: average of results, > = solubility limit or highest concentration tested. In short, it runs like this: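 Homogenate of SK-N-MC cells stably transfected with rat FAAH cDNA (G418-selected clones) in pH 9 Tris/EDTA/glycerol/Triton buffer. Incubated with compound and 80 nM final [3H]-anandamide for 1 h at rt. Released [3H]-ethanolamine separated from substrate on activated charcoal filters and counted by scintillation.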

As for `Cc1cc(NC(=O)N2CCN(Cc3cccc(Oc4ccc(Cl)cc4)c3)CC2)no1` [Example 164, 4-[3-(4-Chlorophenoxy)benzyl]-N-(5-methylisoxazol-3-yl)piperazine-1-carboxamide], the IC50 stood at 141 nM against FAAH and 7000 nM against rat FAAH.
As for `O=C(Nc1ccc(Cl)nn1)N1CCC(Cc2ccc3ccccc3c2)CC1` [Example 9, 4-Naphthalen-2-ylmethyl-piperidine-1-carboxylic acid (6-chloro-pyridazin-3-yl)-amide], the IC50 came to 552 nM at FAAH and 57 nM on rat FAAH.
For the compound `O=C(Nc1noc2ccccc12)N1CCN(Cc2ccc(Br)c(F)c2)CC1` [Example 115, N-1,2-Benzisoxazol-3-yl-4-(4-bromo-3-fluorobenzyl)piperazine-1-carboxamide], the IC50 came to 40 nM on FAAH and 25 nM on rat FAAH.
With `O=C(Nc1noc2ccccc12)N1CCN(Cc2cccc(Oc3cccc(Cl)c3)c2)CC1` [Example 127, N-1,2-Benzisoxazol-3-yl-4-[3-(3-chlorophenoxy)benzyl]piperazine-1-carboxamide], the IC50 on FAAH and against rat FAAH was 40 nM in each case.
`N#Cc1ccc(Oc2cccc(CN3CCN(C(=O)Nc4ccon4)CC3)c2)cc1C(F)(F)F` [Example 163, 4-{3-[4-Cyano-3-(trifluoromethyl)phenoxy]benzyl}-N-isoxazol-3-ylpiperazine-1-carboxamide]: the values for the half-inhibitory concentration (IC50) against FAAH and against rat FAAH were 1000 nM and more than 10000 nM, respectively.
For `N#Cc1c(F)cccc1C#Cc1cccc(CN2CCN(C(=O)Nc3noc4ccccc34)CC2)c1` [Example 91, N-1,2-Benzisoxazol-3-yl-4-{3-[(2-cyano-3-fluorophenyl)ethynyl]-benzyl}piperazine-1-carboxamide], the IC50 turned out to be 30 nM against FAAH and 21 nM at rat FAAH.
On the same counts, the results for `O=C(Nc1noc2ccccc12)N1CCN(Cc2cccc(Oc3ccc(Cl)c(F)c3)c2)CC1` [Example 206, 4-[3-(4-Chloro-3-fluoro-phenoxy)-benzyl]-piperazine-1-carboxylic acid benzo[d]isoxazol-3-ylamide] are 11 nM and 21 nM.
As to `O=C(Nc1noc2ccccc12)N1CCN(Cc2ccc(Br)c(Br)c2)CC1` [Example 121, N-1,2-Benzisoxazol-3-yl-4-(3,4-dibromobenzyl)piperazine-1-carboxamide], the values for the IC50 against FAAH and against rat FAAH were 17 nM and 25 nM, respectively.
On the same counts, the results for `O=C(Nc1nn[nH]n1)N1CCN(Cc2cccc(Oc3ccccc3Cl)c2)CC1` [Example 190, 4-[3-(2-Chlorophenoxy)benzyl]-N-2H-tetrazol-5-ylpiperazine-1-carboxamide] are 3000 nM and 3700 nM.
On the same counts, the results for `O=C(Nc1ccon1)N1CCN(Cc2cccc(Oc3ccccc3Cl)c2)CC1` [Example 140, 4-[3-(2-Chlorophenoxy)benzyl]-N-isoxazol-3-ylpiperazine-1-carboxamide] are 700 nM and 6000 nM.
Take `O=C(Nc1noc2ccccc12)N1CCN(Cc2cc3ccccc3o2)CC1` [Example 126, 4-Benzofuran-2-ylmethyl-piperazine-1-carboxylic acid benzo[d]isoxazol-3-ylamide]: the values for the IC50 against FAAH and against rat FAAH were 60 nM and 200 nM, respectively.
Regarding `O=C(Nc1noc2ccccc12)N1CCN(Cc2cccc(C#Cc3ccccc3F)c2)CC1` [Example 66, N-1,2-Benzisoxazol-3-yl-4-{3-[(2-fluorophenyl)ethynyl]-benzyl}-piperazine-1-carboxamide], the figures for the half-maximal inhibitory concentration (IC50) against FAAH and on rat FAAH were 24 nM and 46 nM, respectively.
For the compound `O=C(Nc1noc2ccccc12)N1CCN(Cc2cccc(Oc3ccc(S(=O)(=O)C(F)(F)F)cc3)c2)CC1` [Example 132, N-1,2-Benzisoxazol-3-yl-4-(3-{4-[(trifluoromethyl)sulfonyl]phenoxy}-benzyl)piperazine-1-carboxamide], the values for the 50% inhibitory concentration (IC50) on FAAH and against rat FAAH were 23 nM and 5 nM, respectively.
On the same counts, the results for `O=C(Nc1cccc2nsnc12)N1CCN(Cc2ccc3c(c2)OC(F)(F)O3)CC1` [Example 4, 4-(2,2-Difluoro-benzo[1,3]dioxol-5-ylmethyl)-piperazine-1-carboxylic acid benzo[1,2,5]thiadiazol-4-ylamide trifluoroacetic acid salt] are 59 nM and 260 nM.
Turning to `O=C(Nc1noc2ccccc12)N1CCN(Cc2ccc(OC(F)(F)F)c(F)c2)CC1` [Example 108, N-1,2-Benzisoxazol-3-yl-4-[3-fluoro-4-(trifluoromethoxy)benzyl]-piperazine-1-carboxamide], the IC50 at FAAH came out at 140 nM; against rat FAAH, 50 nM.
For the compound `O=C(Nc1ccon1)N1CCN(Cc2ccc3c(c2)OCO3)CC1` [Example 143, 4-(1,3-Benzodioxol-5-ylmethyl)-N-isoxazol-3-ylpiperazine-1-carboxamide], the half-inhibitory concentration (IC50) on FAAH and against rat FAAH was more than 10000 nM in each case.
`Cc1ccccc1C#Cc1cccc(CN2CCN(C(=O)Nc3noc4ccccc34)CC2)c1` [Example 63, 4-(3-o-Tolylethynyl-benzyl)-piperazine-1-carboxylic acid benzo[d]isoxazol-3-ylamide]: the IC50 was determined as 70 nM at FAAH and 77 nM on rat FAAH.
On the same counts, the results for `O=C(Nc1cccnn1)N1CCN(Cc2ccc3ccccc3c2)CC1` [Example 200, 4-(Naphthalen-2-ylmethyl)-N-pyridazin-3-ylpiperazine-1-carboxamide] are 38 nM and 500 nM.
With `O=C(Nc1ccon1)N1CCN(Cc2cc3ccccc3o2)CC1` [Example 138, 4-(1-Benzofuran-2-ylmethyl)-N-isoxazol-3-ylpiperazine-1-carboxamide], the IC50 on FAAH is 5000 nM; at rat FAAH, more than 10000 nM.
On the same counts, the results for `O=C(Nc1noc2ccccc12)N1CCN(Cc2cccc(Oc3ccc(F)c(F)c3)c2)CC1` [Example 33, 4-[3-(3,4-Difluoro-phenoxy)-benzyl]-piperazine-1-carboxylic acid benzo[d]isoxazol-3-ylamide] are 52 nM and 30 nM.
In the case of `O=C(Nc1noc2ccccc12)N1CCN(Cc2cccc(Oc3ccc4c(c3)OC(F)(F)O4)c2)CC1` [Example 131, N-1,2-Benzisoxazol-3-yl-4-{3-[(2,2-difluoro-1,3-benzodioxol-5-yl)oxy]benzyl}piperazine-1-carboxamide], the values for the IC50 at FAAH and at rat FAAH were 7 nM and 4 nM, respectively.
As for `O=C(Nc1cnccn1)N1CCN(Cc2cccc(Oc3cccc(OC(F)(F)F)c3)c2)CC1` [Example 242, N-Pyrazin-2-yl-4-{3-[3-(trifluoromethoxy)phenoxy]benzyl}piperazine-1-carboxamide], the IC50 at FAAH stood at 9 nM; against rat FAAH it was 50 nM.
On the same counts, the results for `O=C(Nc1noc2ccccc12)N1CCN(Cc2ccc(F)c(OC(F)(F)F)c2)CC1` [Example 106, N-1,2-Benzisoxazol-3-yl-4-[4-fluoro-3-(trifluoromethoxy)benzyl]-piperazine-1-carboxamide] are 80 nM and 27 nM.
On the same counts, the results for `O=C(Nc1noc2ccccc12)N1CCN(Cc2cccc(Oc3ccc(F)cc3)c2)CC1` [Example 208, 4-[3-(4-Fluoro-phenoxy)-benzyl]-piperazine-1-carboxylic acid benzo[d]isoxazol-3-ylamide] are 21 nM and 17 nM.
